# Results published in patent US20250228239A1, “MOLECULES HAVING PESTICIDAL UTILITY, AND INTERMEDIATES, COMPOSITIONS, AND PROCESSES, RELATED THERETO” (priority 2024, published 2025).
# Like-named read-outs stand apart in the source and are kept apart here.
# Key:
# [1] = tested on: Cabbage Looper (Trichoplusia ni, TRIPNI); test: Bioassays on Cabbage Looper (CL), 128-well diet tray assay; type: in vivo; conditions: Trichoplusia ni
# Outline: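 Test molecule was dissolved in 90:10 acetone-water, applied to artificial diet at 50 μg/cm^2 and allowed to dry. Second-instar larvae were then added, one to five per well, and trays held at 25° C for five to seven days before mortality was scored and averaged.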
# [2] = tested on: Beet Armyworm (Spodoptera exigua, LAPHEG); test: Bioassays on Beet Armyworm (BAW), 128-well diet tray assay; type: in vivo; conditions: Spodoptera exigua
# Outline: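 Diet-overlay assay: 50 μg/cm^2 compound applied in 90:10 acetone-water to artificial diet, allowed to dry, then infested with 1–5 L2 larvae/well; 8 wells/compound; covered, vented; 25° C., 14:10 L:D, 5–7 d; % mortality per well, averaged.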
# [3] = Table ABC: Biological Results, species CL, read-out: CL
# [4] = Table ABC: Biological Results, species BAW, read-out: BAW
# [5] = Cabbage Looper, rating class, read-out: CL
# [6] = Beet Armyworm, rating class, read-out: BAW
# [7] = Cabbage Looper, Table ABC / ABC-DP rating, read-out: CL rating
# [8] = Beet Armyworm, Table ABC / ABC-DP rating, read-out: BAW rating
smiles,measurement,setting,value
"COc1c(Cl)cc(NC(=O)[C@H]2[C@H](c3ccc(F)c(Cl)c3)C2(Cl)Cl)cc1C(=O)Nc1ccc(F)cc1F (relative stereo) [F1236, trans-3-Chloro-5-(2,2-dichloro-3-(3-chloro-4-fluorophenyl)cyclopropane-1-carboxamido)-N-(2,4-difluorophenyl)-2-methoxybenzamide]",pest or weed control at 50 µg/cm2,[1]; [3],50 to 100%
same,pest or weed control at 50 µg/cm2,[2]; [4],50 to 100%
"Nc1ccc(F)c(NC(=O)c2cc(NC(=O)[C@H]3[C@H](c4cc(Cl)cc(Cl)c4)C3(Cl)Cl)cc(F)c2Cl)c1F [F1336, N-(3-Amino-2,6-difluorophenyl)-2-chloro-5-((1R,3R)-2,2-dichloro-3-(3,5-dichlorophenyl)cyclopropane-1-carboxamido)-3-fluorobenzamide]",pest or weed control at 50 µg/cm2,[1]; [3],50 to 100%
same,pest or weed control at 50 µg/cm2,[2]; [4],50 to 100%
"Cc1c(F)cc(NC(=O)[C@H]2[C@H](c3ccc(F)c(Cl)c3)C2(Cl)Cl)cc1C(=O)Nc1ccc(F)c(N)c1F (relative stereo) [F1286, trans-N-(3-Amino-2,4-difluorophenyl)-5-(2,2-dichloro-3-(3-chloro-4-fluorophenyl)cyclopropane-1-carboxamido)-3-fluoro-2-methylbenzamide]",pest or weed control at 50 µg/cm2,[1]; [3],50 to 100%
same,pest or weed control at 50 µg/cm2,[2]; [4],50 to 100%
"O=C(Nc1ccc(F)c(NC(=O)C(F)(F)C(F)F)c1F)c1cc(NC(=O)[C@H]2[C@H](c3cc(Cl)c(Cl)c(Cl)c3)C2(Cl)Cl)ccc1Cl [F1567, 2-Chloro-5-((1R,3R)-2,2-dichloro-3-(3,4,5-trichlorophenyl)cyclopropane-1-carboxamido)-N-(2,4-difluoro-3-(2,2,3,3-tetrafluoropropanamido)phenyl)benzamide]",pest or weed control at 50 µg/cm2,[1]; [5],50 to 100%
same,pest or weed control at 50 µg/cm2,[2]; [6],50 to 100%
"Cc1cc(NC(=O)CCCN)ccc1NC(=O)c1cc(NC(=O)[C@H]2[C@H](c3ccc(Cl)c(Cl)c3)C2(Cl)Cl)ccc1Cl (relative stereo) [F1202, trans-N-(4-(4-Aminobutanamido)-2-methylphenyl)-2-chloro-5-(2,2-dichloro-3-(3,4-dichlorophenyl)cyclopropane-1-carboxamido)benzamide]",pest or weed control at 50 µg/cm2,[1]; [3],50 to 100%
same,pest or weed control at 50 µg/cm2,[2]; [4],50 to 100%
"Nc1cc(NC(=O)c2cc(NC(=O)[C@H]3[C@H](c4ccc(F)c(C(F)(F)F)c4)C3(Cl)Cl)cc(F)c2Cl)c(F)cc1F [F1398, N-(5-Amino-2,4-difluorophenyl)-2-chloro-5-((1R,3R)-2,2-dichloro-3-(4-fluoro-3-(trifluoromethyl)phenyl)cyclopropane-1-carboxamido)-3-fluorobenzamide]",pest or weed control at 50 µg/cm2,[1]; [5],50 to 100%
same,pest or weed control at 50 µg/cm2,[2]; [6],50 to 100%
O=C(Nc1ccc(F)cc1NC(=O)C(Cl)(Cl)Cl)c1cc(NC(=O)C2C(c3ccc(Cl)c(Cl)c3)C2(Cl)Cl)ccc1Cl (centres unmarked) [F1126],pest or weed control at 50 µg/cm2,[1]; [3],50 to 100%
same,pest or weed control at 50 µg/cm2,[2]; [4],50 to 100%
"O=C(Nc1c(F)ccc(NC(=O)c2cc(NC(=O)[C@H]3[C@H](c4ccc(F)c(C(F)(F)F)c4)C3(Cl)Cl)ccc2Cl)c1F)c1cnns1 [F1820, N-(3-(2-Chloro-5-((1R,3R)-2,2-dichloro-3-(4-fluoro-3-(trifluoromethyl)phenyl)cyclopropane-1-carboxamido)benzamido)-2,6-difluorophenyl)-1,2,3-thiadiazole-5-carboxamide]",pest or weed control at 50 µg/cm2,[1]; [7],50 to 100%
same,pest or weed control at 50 µg/cm2,[2]; [8],50 to 100%
"O=C(Nc1cc(F)c(NC(=O)C(Cl)(Cl)Cl)c(F)c1)c1cc(NC(=O)[C@H]2[C@H](c3ccc(Cl)c(Cl)c3)C2(Cl)Cl)ccc1Cl (relative stereo) [F1146, trans-2-Chloro-5-(2,2-dichloro-3-(3,4-dichlorophenyl)cyclopropane-1-carboxamido)-N-(3,5-difluoro-4-(2,2,2-trichloroacetamido)phenyl)benzamide]",pest or weed control at 50 µg/cm2,[1]; [3],50 to 100%
same,pest or weed control at 50 µg/cm2,[2]; [4],50 to 100%
"O=C(CCBr)Nc1c(F)ccc(NC(=O)c2cc(NC(=O)[C@H]3[C@H](c4ccc(F)c(C(F)(F)F)c4)C3(Cl)Cl)ccc2Cl)c1F [F1851, N-(3-(3-Bromopropanamido)-2,4-difluorophenyl)-2-chloro-5-((1R,3R)-2,2-dichloro-3-(4-fluoro-3-(trifluoromethyl)phenyl)cyclopropane-1-carboxamido)benzamide]",pest or weed control at 50 µg/cm2,[1]; [7],50 to 100%
same,pest or weed control at 50 µg/cm2,[2]; [8],50 to 100%
"O=C(Nc1cc(NC(=O)C(F)(F)F)c(F)cc1F)c1cc(NC(=O)[C@H]2[C@H](c3ccc(Cl)c(Cl)c3)C2(Cl)Cl)cc(F)c1Cl [F1403, 2-Chloro-5-((1R,3R)-2,2-dichloro-3-(3,4-dichlorophenyl)cyclopropane-1-carboxamido)-N-(2,4-difluoro-5-(2,2,2-trifluoroacetamido)phenyl)-3-fluorobenzamide]",pest or weed control at 50 µg/cm2,[1]; [5],50 to 100%
same,pest or weed control at 50 µg/cm2,[2]; [6],50 to 100%
"CC(=O)Nc1ccc(F)c(NC(=O)c2cc(NC(=O)[C@H]3[C@H](c4cc(Cl)c(Cl)c(Cl)c4)C3(Cl)Cl)ccc2Cl)c1F [F1515, N-(3-Acetamido-2,6-difluorophenyl)-2-chloro-5-((1R,3R)-2,2-dichloro-3-(3,4,5-trichlorophenyl)cyclopropane-1-carboxamido)benzamide]",pest or weed control at 50 µg/cm2,[1]; [5],50 to 100%
same,pest or weed control at 50 µg/cm2,[2]; [6],50 to 100%
"CC(C(=O)Nc1c(F)ccc(NC(=O)c2cc(NC(=O)[C@H]3[C@H](c4ccc(F)c(C(F)(F)F)c4)C3(Cl)Cl)ccc2Cl)c1F)C(F)(F)F (stereo partly drawn) [F1832, 2-Chloro-5-((1R,3R)-2,2-dichloro-3-(4-fluoro-3-(trifluoromethyl)phenyl)cyclopropane-1-carboxamido)-N-(2,4-difluoro-3-(3,3,3-trifluoro-2-methylpropanamido)phenyl)benzamide]",pest or weed control at 50 µg/cm2,[1]; [7],50 to 100%
same,pest or weed control at 50 µg/cm2,[2]; [8],50 to 100%
"O=C(Nc1ccc(F)c(NC(=O)C(F)F)c1F)c1cc(NC(=O)[C@H]2[C@H](c3ccc(F)c(C(F)(F)F)c3)C2(Cl)Cl)cc(F)c1Cl [F1289, 2-Chloro-5-((1R,3R)-2,2-dichloro-3-(4-fluoro-3-(trifluoromethyl)phenyl)-cyclopropane-1-carboxamido)-N-(3-(2,2-difluoroacetamido)-2,4-difluorophenyl)-3-fluorobenzamide]",pest or weed control at 50 µg/cm2,[1]; [3],50 to 100%
same,pest or weed control at 50 µg/cm2,[2]; [4],50 to 100%
"Cc1cc(NC(=O)[C@H]2[C@H](c3ccc(F)c(C(F)(F)F)c3)C2(Cl)Cl)cc(C(=O)Nc2c(F)ccc(NC(=O)C(F)F)c2F)c1Cl [F1468, 2-Chloro-5-((1R,3R)-2,2-dichloro-3-(4-fluoro-3-(trifluoromethyl)phenyl)cyclopropane-1-carboxamido)-N-(3-(2,2-difluoroacetamido)-2,6-difluorophenyl)-3-methylbenzamide]",pest or weed control at 50 µg/cm2,[1]; [5],50 to 100%
same,pest or weed control at 50 µg/cm2,[2]; [6],50 to 100%
"O=C(Nc1cc(NC(=O)C(F)(F)F)c(F)cc1F)c1cc(NC(=O)[C@H]2[C@H](c3cc(Cl)c(Cl)c(Cl)c3)C2(Cl)Cl)cc(F)c1F [F1579, 5-((1R,3R)-2,2-Dichloro-3-(3,4,5-trichlorophenyl)cyclopropane-1-carboxamido)-N-(2,4-difluoro-5-(2,2,2-trifluoroacetamido)phenyl)-2,3-difluorobenzamide]",pest or weed control at 50 µg/cm2,[1]; [5],50 to 100%
same,pest or weed control at 50 µg/cm2,[2]; [6],50 to 100%
"Nc1c(F)ccc(NC(=O)c2cc(NC(=O)[C@H]3[C@H](c4cc(F)cc(Br)c4F)C3(Cl)Cl)ccc2Cl)c1F (relative stereo) [F1098, trans-N-(3-Amino-2,4-difluorophenyl)-5-(3-(3-bromo-2,5-difluorophenyl)-2,2-dichlorocyclopropane-1-carboxamido)-2-chlorobenzamide]",pest or weed control at 50 µg/cm2,[1]; [3],50 to 100%
same,pest or weed control at 50 µg/cm2,[2]; [4],50 to 100%
"O=C(NCCCCl)c1cc(NC(=O)[C@H]2[C@H](c3ccc(F)c(Cl)c3)C2(Cl)Cl)cc(Cl)c1F (relative stereo) [F2048, trans-3-Chloro-N-(3-chloropropyl)-5-(2,2-dichloro-3-(3-chloro-4-fluorophenyl)cyclopropane-1-carboxamido)-2-fluorobenzamide]",pest or weed control at 50 µg/cm2,[1]; [7],50 to 100%
same,pest or weed control at 50 µg/cm2,[2]; [8],50 to 100%
"CC(C)CC(=O)Nc1c(F)ccc(NC(=O)c2cc(NC(=O)[C@H]3[C@H](c4ccc(F)c(C(F)(F)F)c4)C3(Cl)Cl)ccc2Cl)c1F [F1845, 2-Chloro-5-((1R,3R)-2,2-dichloro-3-(4-fluoro-3-(trifluoromethyl)phenyl)cyclopropane-1-carboxamido)-N-(2,4-difluoro-3-(3-methylbutanamido)phenyl)benzamide]",pest or weed control at 50 µg/cm2,[1]; [7],50 to 100%
same,pest or weed control at 50 µg/cm2,[2]; [8],50 to 100%
"Nc1c(F)ccc(NC(=O)c2cc(NC(=O)[C@H]3[C@@H](c4cc(Cl)cc(S(F)(F)(F)(F)F)c4)C3(Cl)Cl)ccc2Cl)c1F (relative stereo) [F1260, cis-N-(3-Amino-2,4-difluorophenyl)-2-chloro-5-(2,2-dichloro-3-(3-chloro-5-(pentafluoro-λ^6-sulfanyl)phenyl)cyclopropane-1-carboxamido)benzamide]",pest or weed control at 50 µg/cm2,[1]; [3],50 to 100%
same,pest or weed control at 50 µg/cm2,[2]; [4],50 to 100%
C#CCCC(=O)Nc1c(F)ccc(NC(=O)c2cc(NC(=O)[C@H]3[C@H](c4ccc(F)c(C(F)(F)F)c4)C3(Cl)Cl)ccc2Cl)c1F [F1855],pest or weed control at 50 µg/cm2,[1]; [7],50 to 100%
same,pest or weed control at 50 µg/cm2,[2]; [8],50 to 100%
"O=C(CC(F)(F)F)NNC(=O)c1cc(NC(=O)[C@H]2[C@H](c3cc(Cl)cc(Cl)c3)C2(Cl)Cl)ccc1Cl (relative stereo) [F2516, trans-2,2-Dichloro-N-(4-chloro-3-(2-(3,3,3-trifluoropropanoyl)hydrazine-1-carbonyl)phenyl)-3-(3,5-dichlorophenyl)cyclopropane-1-carboxamide]",pest or weed control at 50 µg/cm2,[1]; [7],50 to 100%
same,pest or weed control at 50 µg/cm2,[2]; [8],50 to 100%
